Test results as given in US20230074545A1, “TREATMENT OF CANCER WITH CDK12/13 INHIBITORS” (Kinnate Biopharma Inc., priority 2019, published 2023).

Legend:
Assay in all cases: Radiometric kinase panel
Assay type in all cases: biochemical
[1] = biological target: T1, AKT1 (Homo sapiens, UniProt P31749)
T1 construct: either as full-length or enzymatically active fragments; purchased ProQinase GmbH (Reaction Biology)
How it was run: (§1)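 Activity was measured radiometrically from [gamma-33P]-ATP incorporation into substrate. The kinases were recombinant human GST- or His-tagged proteins, full-length or active fragments, expressed in Sf9 or E. coli. Compound in 10% DMSO was added before the enzyme/substrate mix, which started the reaction.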

[2] = biological target: T2, AuroraB (Homo sapiens, UniProt Q96GD4)
T2 construct: purchased ProQinase GmbH (Reaction Biology); host or cells: Sf9 insect cells or E. coli (not specified per kinase)
How it was run: as §1

[3] = biological target: T3, BRK (Homo sapiens, UniProt Q13882)
T3 construct: purchased ProQinase GmbH (Reaction Biology); host or cells: Sf9 insect cells or E. coli (not specified per kinase)
How it was run: as §1

[4] = biological target: T4, BRSK2 (Homo sapiens, UniProt Q8IWQ3)
T4 construct: either as full-length or enzymatically active fragments; purchased ProQinase GmbH (Reaction Biology)
How it was run: as §1

[5] = biological target: T5, BTK (Homo sapiens, UniProt Q06187)
T5 construct: purchased ProQinase GmbH (Reaction Biology); host or cells: Sf9 insect cells or E. coli (not specified per kinase)
T5 sequence (Q06187 whole entry): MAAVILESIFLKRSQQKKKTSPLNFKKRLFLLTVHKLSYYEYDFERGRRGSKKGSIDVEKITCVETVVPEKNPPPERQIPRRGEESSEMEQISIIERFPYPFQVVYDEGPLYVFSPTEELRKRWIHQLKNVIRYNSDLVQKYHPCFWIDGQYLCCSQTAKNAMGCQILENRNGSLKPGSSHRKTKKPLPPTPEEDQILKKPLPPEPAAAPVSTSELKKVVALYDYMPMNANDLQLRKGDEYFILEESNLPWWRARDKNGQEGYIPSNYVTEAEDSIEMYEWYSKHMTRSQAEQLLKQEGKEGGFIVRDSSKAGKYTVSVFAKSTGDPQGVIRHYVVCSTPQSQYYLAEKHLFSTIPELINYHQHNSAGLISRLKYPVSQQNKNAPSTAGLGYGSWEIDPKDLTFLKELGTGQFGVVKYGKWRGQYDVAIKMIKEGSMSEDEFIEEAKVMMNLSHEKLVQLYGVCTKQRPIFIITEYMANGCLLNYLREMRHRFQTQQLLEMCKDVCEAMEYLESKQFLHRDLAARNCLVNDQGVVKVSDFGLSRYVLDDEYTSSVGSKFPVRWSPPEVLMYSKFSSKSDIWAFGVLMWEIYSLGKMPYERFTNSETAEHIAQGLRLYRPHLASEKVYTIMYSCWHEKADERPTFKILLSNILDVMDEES
How it was run: as §1

[6] = biological target: T6, BUB1B (Homo sapiens, UniProt O60566)
T6 construct: either as full-length or enzymatically active fragments; purchased ProQinase GmbH (Reaction Biology); host or cells: Sf9 insect cells or E. coli
How it was run: as §1

[7] = biological target: T7, CDK1/CycA2 (Homo sapiens, UniProt P06493)
T7 construct: either as full-length or enzymatically active fragments; purchased ProQinase GmbH (Reaction Biology)
How it was run: as §1

[8] = biological target: T8, CDK2/CycA2 (Homo sapiens, UniProt P24941)
T8 construct: either as full-length or enzymatically active fragments; purchased ProQinase GmbH (Reaction Biology); host or cells: Sf9 insect cells or E. coli
How it was run: as §1

[9] = biological target: T9, COT (Homo sapiens, UniProt P41279)
T9 construct: either as full-length or enzymatically active fragments; purchased ProQinase GmbH (Reaction Biology)
How it was run: as §1

[10] = biological target: T10, CSF1R (Homo sapiens, UniProt P07333)
T10 construct: either as full-length or enzymatically active fragments; purchased ProQinase GmbH (Reaction Biology); host or cells: Sf9 insect cells or E. coli
How it was run: as §1

[11] = biological target: T11, DAPK1 (Homo sapiens, UniProt P53355)
T11 construct: either as full-length or enzymatically active fragments; purchased ProQinase GmbH (Reaction Biology); host or cells: Sf9 insect cells or E. coli
How it was run: as §1

[12] = biological target: T12, DAPK2 (Homo sapiens, UniProt Q9UIK4)
T12 construct: either as full-length or enzymatically active fragments; purchased ProQinase GmbH (Reaction Biology); host or cells: Sf9 insect cells or E. coli (not specified per kinase)
How it was run: as §1

[13] = biological target: T13, DAPK3 (Homo sapiens, UniProt O43293)
T13 construct: purchased ProQinase GmbH (Reaction Biology)
T13 sequence (O43293 whole entry): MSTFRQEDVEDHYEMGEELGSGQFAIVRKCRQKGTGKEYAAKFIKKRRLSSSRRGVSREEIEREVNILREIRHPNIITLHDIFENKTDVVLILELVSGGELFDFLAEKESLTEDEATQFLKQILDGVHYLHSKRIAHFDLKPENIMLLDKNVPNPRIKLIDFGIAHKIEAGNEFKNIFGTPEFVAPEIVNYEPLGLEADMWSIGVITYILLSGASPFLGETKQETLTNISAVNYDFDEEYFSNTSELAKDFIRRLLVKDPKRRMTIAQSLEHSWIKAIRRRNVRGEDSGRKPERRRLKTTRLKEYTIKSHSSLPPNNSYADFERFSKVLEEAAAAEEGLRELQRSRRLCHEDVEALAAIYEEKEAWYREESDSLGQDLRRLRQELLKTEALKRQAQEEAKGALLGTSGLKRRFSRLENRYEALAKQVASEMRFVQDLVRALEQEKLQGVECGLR
How it was run: as §1

[14] = biological target: T14, DNAPK (Homo sapiens, UniProt P78527)
T14 construct: purchased ProQinase GmbH (Reaction Biology); host or cells: Sf9 insect cells or E. coli (not specified per kinase)
How it was run: as §1

[15] = biological target: T15, ERK2 (Homo sapiens, UniProt P28482)
T15 construct: either as full-length or enzymatically active fragments; purchased ProQinase GmbH (Reaction Biology); host or cells: Sf9 insect cells or E. coli (not specified per kinase)
How it was run: as §1

[16] = biological target: T16, HIPK1 (Homo sapiens, UniProt Q86Z02)
T16 construct: either as full-length or enzymatically active fragments; purchased ProQinase GmbH (Reaction Biology); host or cells: Sf9 insect cells or E. coli (not specified per kinase)
How it was run: as §1

[17] = biological target: T17, JAK2 (Homo sapiens, UniProt O60674)
T17 construct: either as full-length or enzymatically active fragments; purchased ProQinase GmbH (Reaction Biology)
How it was run: as §1

[18] = biological target: T18, MINK1 (Homo sapiens, UniProt Q8N4C8)
T18 construct: either as full-length or enzymatically active fragments; purchased ProQinase GmbH (Reaction Biology)
How it was run: as §1

[19] = biological target: T19, MST2 (Homo sapiens, UniProt Q13188)
T19 construct: purchased ProQinase GmbH (Reaction Biology)
How it was run: as §1

[20] = biological target: T20, NEK11 (Homo sapiens, UniProt Q8NG66)
T20 construct: either as full-length or enzymatically active fragments; purchased ProQinase GmbH (Reaction Biology)
T20 sequence (Q8NG66 whole entry, the tested form may be a part): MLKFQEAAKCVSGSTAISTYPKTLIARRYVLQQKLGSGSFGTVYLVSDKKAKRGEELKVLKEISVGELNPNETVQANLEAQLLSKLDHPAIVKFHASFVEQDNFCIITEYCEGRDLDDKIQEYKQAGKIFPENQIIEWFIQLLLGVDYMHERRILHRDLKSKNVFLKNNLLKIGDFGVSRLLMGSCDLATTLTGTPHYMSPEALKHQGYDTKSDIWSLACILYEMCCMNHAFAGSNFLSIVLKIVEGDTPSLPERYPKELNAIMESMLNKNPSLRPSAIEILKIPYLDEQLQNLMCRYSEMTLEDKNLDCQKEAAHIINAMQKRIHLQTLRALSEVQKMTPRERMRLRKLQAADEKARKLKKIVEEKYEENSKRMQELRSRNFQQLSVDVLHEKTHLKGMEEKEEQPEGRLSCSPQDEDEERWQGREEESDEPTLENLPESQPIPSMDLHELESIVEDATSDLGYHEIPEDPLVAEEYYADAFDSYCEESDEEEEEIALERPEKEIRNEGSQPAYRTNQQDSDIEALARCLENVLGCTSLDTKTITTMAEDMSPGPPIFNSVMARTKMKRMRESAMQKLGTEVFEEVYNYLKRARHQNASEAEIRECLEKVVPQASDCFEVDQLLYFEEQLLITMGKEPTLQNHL
How it was run: as §1

[21] = biological target: T21, PHKG2 (Homo sapiens, UniProt P15735)
T21 construct: either as full-length or enzymatically active fragments; purchased ProQinase GmbH (Reaction Biology)
T21 sequence (P15735 whole entry, the tested form may be a part): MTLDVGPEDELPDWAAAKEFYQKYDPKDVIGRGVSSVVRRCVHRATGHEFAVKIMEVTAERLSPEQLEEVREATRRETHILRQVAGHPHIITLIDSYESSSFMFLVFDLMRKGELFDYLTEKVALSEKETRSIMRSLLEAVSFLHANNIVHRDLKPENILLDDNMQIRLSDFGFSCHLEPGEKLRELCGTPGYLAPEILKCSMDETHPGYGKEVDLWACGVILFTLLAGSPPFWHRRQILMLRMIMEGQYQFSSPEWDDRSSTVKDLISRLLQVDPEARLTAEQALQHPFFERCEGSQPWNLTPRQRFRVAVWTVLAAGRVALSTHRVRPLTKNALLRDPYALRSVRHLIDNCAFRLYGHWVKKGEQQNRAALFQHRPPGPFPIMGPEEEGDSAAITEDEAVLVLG
How it was run: as §1

[22] = biological target: T22, PIM1 (Homo sapiens, UniProt P11309)
T22 construct: either as full-length or enzymatically active fragments; purchased ProQinase GmbH (Reaction Biology)
How it was run: as §1

[23] = biological target: T23, PKMYT1 (Homo sapiens, UniProt Q99640)
T23 construct: either as full-length or enzymatically active fragments; purchased ProQinase GmbH (Reaction Biology)
How it was run: as §1

[24] = biological target: T24, PRKG2 (Homo sapiens, UniProt Q13237)
T24 construct: either as full-length or enzymatically active fragments; purchased ProQinase GmbH (Reaction Biology)
How it was run: as §1

[25] = biological target: T25, RPS6KA3 (Homo sapiens, UniProt P51812)
T25 construct: purchased ProQinase GmbH (Reaction Biology); host or cells: Sf9 insect cells or E. coli (not specified per kinase)
How it was run: as §1

[26] = biological target: T26, TAOK3 (Homo sapiens, UniProt Q9H2K8)
T26 construct: either as full-length or enzymatically active fragments; purchased ProQinase GmbH (Reaction Biology)
How it was run: as §1

[27] = biological target: T27, TLK2 (Homo sapiens, UniProt Q86UE8)
T27 construct: either as full-length or enzymatically active fragments; purchased ProQinase GmbH (Reaction Biology)
T27 sequence (Q86UE8 whole entry, the tested form may be a part): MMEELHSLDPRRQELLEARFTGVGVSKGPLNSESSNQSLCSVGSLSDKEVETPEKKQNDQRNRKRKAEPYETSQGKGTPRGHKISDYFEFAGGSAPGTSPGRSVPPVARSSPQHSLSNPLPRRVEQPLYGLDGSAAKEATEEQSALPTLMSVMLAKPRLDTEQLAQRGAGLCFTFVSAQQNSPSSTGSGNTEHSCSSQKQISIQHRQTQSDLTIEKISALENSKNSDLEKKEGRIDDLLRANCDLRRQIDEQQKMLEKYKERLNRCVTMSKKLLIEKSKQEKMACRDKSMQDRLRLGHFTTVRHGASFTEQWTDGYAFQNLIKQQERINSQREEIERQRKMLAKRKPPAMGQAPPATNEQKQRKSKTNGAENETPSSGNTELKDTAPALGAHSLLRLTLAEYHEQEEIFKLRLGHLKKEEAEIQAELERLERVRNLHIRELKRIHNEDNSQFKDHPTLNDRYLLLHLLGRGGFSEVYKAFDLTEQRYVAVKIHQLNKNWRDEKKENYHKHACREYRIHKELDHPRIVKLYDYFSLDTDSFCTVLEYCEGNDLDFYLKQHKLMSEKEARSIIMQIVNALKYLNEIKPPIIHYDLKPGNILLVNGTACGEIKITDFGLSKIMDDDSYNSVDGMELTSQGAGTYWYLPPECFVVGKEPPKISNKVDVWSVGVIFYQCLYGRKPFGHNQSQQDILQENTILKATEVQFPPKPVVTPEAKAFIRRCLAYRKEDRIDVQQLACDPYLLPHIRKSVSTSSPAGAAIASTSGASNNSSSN
How it was run: as §1

[28] = biological target: T28, VEGFR1 (Homo sapiens, UniProt P17948)
T28 construct: either as full-length or enzymatically active fragments; purchased ProQinase GmbH (Reaction Biology); host or cells: Sf9 insect cells or E. coli (not specified per kinase)
T28 sequence (P17948 27-1338): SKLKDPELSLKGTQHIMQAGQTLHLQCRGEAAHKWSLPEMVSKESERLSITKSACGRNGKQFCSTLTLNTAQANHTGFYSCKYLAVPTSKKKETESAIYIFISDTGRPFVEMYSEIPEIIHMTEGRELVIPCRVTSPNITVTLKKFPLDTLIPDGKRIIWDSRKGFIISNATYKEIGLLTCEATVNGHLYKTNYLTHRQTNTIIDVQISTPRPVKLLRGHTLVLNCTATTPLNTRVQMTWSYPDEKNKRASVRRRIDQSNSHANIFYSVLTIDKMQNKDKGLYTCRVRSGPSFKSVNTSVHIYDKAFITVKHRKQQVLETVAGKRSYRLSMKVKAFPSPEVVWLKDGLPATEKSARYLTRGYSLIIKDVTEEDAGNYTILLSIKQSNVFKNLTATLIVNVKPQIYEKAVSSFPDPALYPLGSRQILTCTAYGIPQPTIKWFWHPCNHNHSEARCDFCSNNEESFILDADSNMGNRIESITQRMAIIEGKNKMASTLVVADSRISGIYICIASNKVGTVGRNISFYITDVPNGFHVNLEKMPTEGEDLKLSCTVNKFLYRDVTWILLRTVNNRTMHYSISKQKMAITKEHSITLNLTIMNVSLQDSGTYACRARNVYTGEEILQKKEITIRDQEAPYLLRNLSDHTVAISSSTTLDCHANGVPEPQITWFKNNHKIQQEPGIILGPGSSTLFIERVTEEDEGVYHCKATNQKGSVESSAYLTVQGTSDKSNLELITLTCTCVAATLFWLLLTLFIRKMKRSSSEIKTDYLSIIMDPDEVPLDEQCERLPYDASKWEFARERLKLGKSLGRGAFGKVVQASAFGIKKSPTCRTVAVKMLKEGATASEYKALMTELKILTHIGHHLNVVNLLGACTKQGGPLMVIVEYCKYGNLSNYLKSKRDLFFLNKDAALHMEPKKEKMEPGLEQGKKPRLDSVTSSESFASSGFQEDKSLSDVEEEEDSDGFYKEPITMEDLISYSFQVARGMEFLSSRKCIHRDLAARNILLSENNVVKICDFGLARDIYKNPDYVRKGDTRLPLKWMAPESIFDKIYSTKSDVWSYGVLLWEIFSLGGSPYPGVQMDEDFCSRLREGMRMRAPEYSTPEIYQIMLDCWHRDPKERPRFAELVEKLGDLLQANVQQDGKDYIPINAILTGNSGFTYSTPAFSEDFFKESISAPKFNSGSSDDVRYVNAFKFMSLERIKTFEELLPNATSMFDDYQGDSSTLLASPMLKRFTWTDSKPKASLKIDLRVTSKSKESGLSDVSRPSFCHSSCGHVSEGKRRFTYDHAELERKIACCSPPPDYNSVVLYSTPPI
How it was run: as §1

[29] = biological target: T29, VRK1 (Homo sapiens, UniProt Q99986)
T29 construct: either as full-length or enzymatically active fragments; purchased ProQinase GmbH (Reaction Biology)
T29 sequence (Q99986 whole entry, the tested form may be a part): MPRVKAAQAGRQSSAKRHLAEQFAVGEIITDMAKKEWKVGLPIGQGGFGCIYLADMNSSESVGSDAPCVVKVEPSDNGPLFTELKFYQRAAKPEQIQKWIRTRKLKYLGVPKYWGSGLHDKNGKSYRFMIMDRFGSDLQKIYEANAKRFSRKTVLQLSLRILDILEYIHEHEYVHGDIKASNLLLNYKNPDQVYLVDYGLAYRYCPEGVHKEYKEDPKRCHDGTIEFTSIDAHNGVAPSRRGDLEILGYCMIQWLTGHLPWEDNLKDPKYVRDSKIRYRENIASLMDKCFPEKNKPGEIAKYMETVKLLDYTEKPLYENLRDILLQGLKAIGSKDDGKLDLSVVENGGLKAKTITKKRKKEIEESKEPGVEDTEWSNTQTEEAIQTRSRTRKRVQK
How it was run: as §1

[30] = biological target: T30, p38alpha (Homo sapiens, UniProt Q16539)
T30 construct: either as full-length or enzymatically active fragments; purchased ProQinase GmbH (Reaction Biology)
How it was run: as §1

[31] = biological target: T31, p38gamma (Homo sapiens, UniProt P53778)
T31 construct: either as full-length or enzymatically active fragments; purchased ProQinase GmbH (Reaction Biology); host or cells: Sf9 insect cells or E. coli (not specified per kinase)
T31 sequence (P53778 whole entry, the tested form may be a part): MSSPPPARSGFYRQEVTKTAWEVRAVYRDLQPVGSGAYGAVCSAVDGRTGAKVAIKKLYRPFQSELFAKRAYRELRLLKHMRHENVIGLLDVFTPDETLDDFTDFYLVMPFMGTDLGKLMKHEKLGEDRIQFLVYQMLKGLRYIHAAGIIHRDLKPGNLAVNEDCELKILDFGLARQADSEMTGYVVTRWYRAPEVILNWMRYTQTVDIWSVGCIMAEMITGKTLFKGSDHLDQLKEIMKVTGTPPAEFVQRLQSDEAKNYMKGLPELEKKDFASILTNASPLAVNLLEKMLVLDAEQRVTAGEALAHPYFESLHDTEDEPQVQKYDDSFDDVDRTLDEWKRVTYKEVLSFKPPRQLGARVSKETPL
How it was run: as §1

Question: For `C=CC(=O)Nc1ccc(C(=O)N2CC[C@@H](Nc3ncc(C#N)cn3)C2)cc1` [Compound 4, (R)-N-(4-(3-((5-cyanopyrimidin-2-yl)amino)pyrrolidine-1-carbonyl)phenyl)acrylamide], which inhibition at 1 µM [1] is on record?
Answer: Its inhibition at 1 µM is 2%.

Question: And the inhibition at 1 µM [2]?
Answer: The inhibition at 1 µM was 1%.

Question: What about the inhibition at 1 µM [3] of the same molecule?
Answer: The inhibition at 1 µM was 1%.

Question: And the inhibition at 1 µM [4]?
Answer: The inhibition at 1 µM was -10%.

Question: And the inhibition at 1 µM [5]?
Answer: Its inhibition at 1 µM is 1%.

Question: What about the inhibition at 1 µM [6] of the same molecule?
Answer: Its inhibition at 1 µM is 13%.

Question: What about the inhibition at 1 µM [7] of the same molecule?
Answer: The inhibition at 1 µM was 17%.

Question: And the inhibition at 1 µM [8]?
Answer: Its inhibition at 1 µM is 15%.

Question: And the inhibition at 1 µM [9]?
Answer: Its inhibition at 1 µM is 6%.

Question: And the inhibition at 1 µM [10]?
Answer: Its inhibition at 1 µM is 14%.

Question: And the inhibition at 1 µM [11]?
Answer: Its inhibition at 1 µM is -15%.

Question: What about the inhibition at 1 µM [12] of the same molecule?
Answer: The inhibition at 1 µM was 9%.

Question: What about the inhibition at 1 µM [13] of the same molecule?
Answer: The inhibition at 1 µM was 0%.

Question: And the inhibition at 1 µM [14]?
Answer: Its inhibition at 1 µM is 2%.

Question: And the inhibition at 1 µM [15]?
Answer: The inhibition at 1 µM was 9%.

Question: What about the inhibition at 1 µM [16] of the same molecule?
Answer: The inhibition at 1 µM was 8%.

Question: And the inhibition at 1 µM [17]?
Answer: The inhibition at 1 µM was -6%.

Question: What about the inhibition at 1 µM [18] of the same molecule?
Answer: Its inhibition at 1 µM is 16%.

Question: And the inhibition at 1 µM [19]?
Answer: The inhibition at 1 µM was 0%.

Question: And the inhibition at 1 µM [20]?
Answer: The inhibition at 1 µM was -5%.

Question: What about the inhibition at 1 µM [21] of the same molecule?
Answer: The inhibition at 1 µM was 2%.

Question: What about the inhibition at 1 µM [22] of the same molecule?
Answer: Its inhibition at 1 µM is 3%.

Question: And the inhibition at 1 µM [23]?
Answer: The inhibition at 1 µM was 5%.

Question: And the inhibition at 1 µM [24]?
Answer: Its inhibition at 1 µM is -6%.

Question: And the inhibition at 1 µM [25]?
Answer: Its inhibition at 1 µM is 1%.

Question: What about the inhibition at 1 µM [26] of the same molecule?
Answer: The inhibition at 1 µM was 6%.

Question: And the inhibition at 1 µM [27]?
Answer: The inhibition at 1 µM was -10%.

Question: And the inhibition at 1 µM [28]?
Answer: The inhibition at 1 µM was 8%.

Question: And the inhibition at 1 µM [29]?
Answer: Its inhibition at 1 µM is 2%.

Question: What about the inhibition at 1 µM [30] of the same molecule?
Answer: The inhibition at 1 µM was 3%.

Question: What about the inhibition at 1 µM [31] of the same molecule?
Answer: The inhibition at 1 µM was 10%.
